Results taken from ChEMBL document CHEMBL1130903, “Preparation of difluoro analogs of CCGs and their pharmacological evaluations” (Bioorg Med Chem Lett, 1998).

Legend:
[1] = target: T1, Glutamate NMDA receptor (Rattus norvegicus) (UniProt P35439+Q00959+Q00960+Q00961+Q62645+Q8VHN2+Q9R1M7); assay: (§1) Relative activity in depolarization to its corresponding CCG(CCG=1) isomer; type: protein-complex assay
[2] = target: T1, Glutamate NMDA receptor (Rattus norvegicus); assay: Depolarizing activity against NMDA receptor in isolated spinal cord of newborn rat.; type: protein-complex assay
[3] = target: Metabotropic glutamate receptor 1 (Rattus norvegicus) (UniProt P23385); assay: as §1
Chain of Metabotropic glutamate receptor 1 (Rattus norvegicus) (P23385 19-1199 limits assumed): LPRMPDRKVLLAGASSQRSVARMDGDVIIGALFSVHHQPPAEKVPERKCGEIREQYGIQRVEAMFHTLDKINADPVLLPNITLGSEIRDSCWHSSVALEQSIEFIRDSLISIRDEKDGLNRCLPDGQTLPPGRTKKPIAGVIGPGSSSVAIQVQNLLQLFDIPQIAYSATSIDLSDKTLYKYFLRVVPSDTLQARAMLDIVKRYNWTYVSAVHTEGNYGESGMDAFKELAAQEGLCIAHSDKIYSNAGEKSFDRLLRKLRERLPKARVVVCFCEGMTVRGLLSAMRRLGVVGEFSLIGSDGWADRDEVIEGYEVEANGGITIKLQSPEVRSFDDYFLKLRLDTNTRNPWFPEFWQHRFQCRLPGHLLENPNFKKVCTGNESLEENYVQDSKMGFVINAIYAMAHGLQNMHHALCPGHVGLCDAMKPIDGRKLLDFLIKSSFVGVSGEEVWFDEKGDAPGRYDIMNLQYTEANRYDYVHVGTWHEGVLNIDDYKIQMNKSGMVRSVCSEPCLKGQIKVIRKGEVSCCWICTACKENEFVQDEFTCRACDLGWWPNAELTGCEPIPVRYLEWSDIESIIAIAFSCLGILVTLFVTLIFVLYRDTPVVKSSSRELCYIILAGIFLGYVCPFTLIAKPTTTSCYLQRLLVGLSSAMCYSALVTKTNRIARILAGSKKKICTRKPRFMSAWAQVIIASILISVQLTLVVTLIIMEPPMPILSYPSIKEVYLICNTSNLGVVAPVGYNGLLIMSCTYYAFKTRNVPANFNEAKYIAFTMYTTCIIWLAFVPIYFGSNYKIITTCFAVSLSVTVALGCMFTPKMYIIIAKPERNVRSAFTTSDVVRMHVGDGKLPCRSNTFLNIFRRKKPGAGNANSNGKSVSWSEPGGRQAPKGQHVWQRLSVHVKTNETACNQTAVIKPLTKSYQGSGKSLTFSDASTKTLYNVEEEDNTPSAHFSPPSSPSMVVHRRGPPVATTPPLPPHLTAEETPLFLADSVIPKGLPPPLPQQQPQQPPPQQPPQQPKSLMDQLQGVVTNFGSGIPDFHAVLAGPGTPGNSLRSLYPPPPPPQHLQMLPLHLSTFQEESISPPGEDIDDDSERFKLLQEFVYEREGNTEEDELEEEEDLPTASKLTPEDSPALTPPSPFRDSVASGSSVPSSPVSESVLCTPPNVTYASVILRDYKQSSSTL

[4] = target: Metabotropic glutamate receptor 1 (Rattus norvegicus) (UniProt P23385); assay: Depolarizing activity against mGluR-I receptor in isolated spinal cord of newborn rat.; type: tissue-based

N[C@@H](C(=O)O)[C@H]1[C@H](C(=O)O)C1(F)F
Ratio of depolarizing activity [1]: 1.2
Threshold concentration [2]: 30 µM

N[C@H](C(=O)O)[C@@H]1[C@H](C(=O)O)C1(F)F
Ratio of depolarizing activity [1]: 2
Threshold concentration [2]: 100 µM

NC(C(=O)O)[C@H]1[C@@H](C(=O)O)C1(F)F (single isomer, unassigned)
Ratio of depolarizing activity [1]: < 0.01
Threshold concentration [2]: 1000 µM

N[C@H](C(=O)O)[C@H]1[C@@H](C(=O)O)C1(F)F
Ratio of depolarizing activity [1]: 1.5
Threshold concentration [2]: 1 µM

N[C@@H](C(=O)O)[C@@H]1[C@@H](C(=O)O)C1(F)F
Ratio of depolarizing activity [1]: 0.1
Threshold concentration [2]: 10 µM

N[C@H](C(=O)O)[C@H]1[C@H](C(=O)O)C1(F)F
Ratio of depolarizing activity [3]: 0.5
Threshold concentration [4]: 300 µM
Threshold concentration [2]: 300 µM

N[C@H](C(=O)O)[C@@H]1[C@@H](C(=O)O)C1(F)F
Ratio of depolarizing activity [3]: 3
Threshold concentration [4]: 2 µM

NC(C(=O)O)[C@@H]1[C@H](C(=O)O)C1(F)F (single isomer, unassigned)
Ratio of depolarizing activity [1]: < 0.1
Threshold concentration [2]: 1000 µM
